Like-named read-outs stand apart in the source and are kept apart here. Values belong to the compound of their own block, whether it stands above or below them.
How the values were obtained:
Assay in all cases: MIC of β-lactams alone or with 50 µM IDACYD against clinical isolates
Assay type in all cases: cell-based
Proteus mirabilis = conditions: Proteus mirabilis, alone
Procedure: (§1) Further the in-vitro inhibitory activity of IDACYDs was tested against highly resistant pathogens. Tables 3, 4 and 5 show the effect of IDACYDs using a collection of 36 highly resistant Gram negative strains (Table 2, Kirby-Bauer disc diffusion method) producing NDM, VIM and IMP type MBLs as well as 6 isolates expressing serine beta-lactamases (ESBLs, AmpCs). […] Clinical isolates co-expressing ESBLs and/or AmpC β-lactamases along with MBLs where re-sensitized to both imipenem and meropenem, as expected. Table 2: Collection of clinical isolates used for in-vitro evaluation

Serratia marcescens = conditions: Serratia marcescens, isolate EUG-815 (VIM, CMY), alone
Procedure: as §1

Escherichia coli = conditions: Escherichia coli, alone
Procedure: as §1

Providencia stuartii = conditions: Providencia stuartii, alone
Procedure: as §1

Klebsiella pneumoniae = conditions: for MIC: Klebsiella pneumoniae, alone; for Imipenem + α-IDACYD MIC / Meropenem + α-IDACYD MIC: IDACYD 50 μM
Procedure: Further the in-vitro inhibitory activity of IDACYDs was tested against highly resistant pathogens. […] Table 2: Collection of clinical isolates used for in-vitro evaluation

Enterobacter gergoviae = conditions: Pluralibacter gergoviae, alone, read-out: Imipenem MIC
Procedure: as §1

Acinetobacter baumannii = conditions: Acinetobacter baumannii, alone, read-out: Imipenem MIC
Procedure: as §1

SMILES: CC(C)(O/N=C(\C(=O)N[C@@H]1C(=O)N2C(C(=O)[O-])=C(C[n+]3ccccc3)CS[C@H]12)c1csc(N)n1)C(=O)O [Ceftazidime, reference compound]
MIC (Proteus mirabilis; isolate ESDY-15184 (VIM, CMY), read-out: Ceftazidime MIC): > 256 µg/mL | MIC (Serratia marcescens; read-out: Ceftazidime MIC): > 256 µg/mL | MIC (Escherichia coli; isolate TZAN-116 (VIM), read-out: Ceftazidime MIC): > 256 µg/mL | MIC (Providencia stuartii; isolate ALX- 21 (VIM, VEB), read-out: Ceftazidime MIC): 128 µg/mL | MIC (Providencia stuartii; isolate ESDY-4559 (VIM), read-out: Ceftazidime MIC): 8 µg/mL | MIC (Klebsiella pneumoniae; isolate ALX-47 (OXA-48,CTX-M), read-out: Ceftazidime MIC): > 256 µg/mL | MIC (Klebsiella pneumoniae; isolate ESDY-5742 (IMP), read-out: Ceftazidime MIC): > 256 µg/mL | MIC (Klebsiella pneumoniae; isolate LA-28 (NDM, CTXM), read-out: Ceftazidime MIC): > 256 µg/mL | MIC (Klebsiella pneumoniae; isolate LA-82/16 (VIM, SHV), read-out: Ceftazidime MIC): > 256 µg/mL | MIC (Klebsiella pneumoniae; isolate LA-109/16 (VIM, CTXM), read-out: Ceftazidime MIC): > 256 µg/mL | MIC (Klebsiella pneumoniae; isolate LAR-4011/15, read-out: Ceftazidime MIC): 32 µg/mL | MIC (Klebsiella pneumoniae; isolate UoA 12/227 (VIM), read-out: Ceftazidime MIC): > 256 µg/mL | MIC (Klebsiella pneumoniae; isolate UoA 1995 (VIM), read-out: Ceftazidime MIC): > 256 µg/mL

MIC (Enterobacter gergoviae; isolate AK-5227 (VIM, CMY)): 8 µg/mL | MIC (Enterobacter gergoviae; isolate AK-5240 (VIM, CMY)): 8 µg/mL | MIC (Proteus mirabilis; Table 5, Pr m ESDY 15315 (VIM-1, CMY), read-out: Imipenem MIC): 16 µg/mL | MIC (Proteus mirabilis; isolate ALX-13 (VIM, VEB), read-out: Imipenem MIC): 8 µg/mL | MIC (Proteus mirabilis; isolate ESDY-17 (VIM, CMY), read-out: Imipenem MIC): 4 µg/mL | MIC (Proteus mirabilis; isolate ESDY-15184 (VIM, CMY), read-out: Imipenem MIC): 8 µg/mL | MIC (Proteus mirabilis; isolate ESDY-15315 (VIM, CMY), read-out: Imipenem MIC): 16 µg/mL | MIC (Serratia marcescens; read-out: Imipenem MIC): 16 µg/mL | MIC (Acinetobacter baumannii; isolate TZAN-40 (VIM, OXA-58)): 4 µg/mL | MIC (Acinetobacter baumannii; isolate TZAN-42 (VIM, OXA-58)): 8 µg/mL | MIC (Escherichia coli; isolate TZAN-116 (VIM), read-out: Imipenem MIC): 4 µg/mL | MIC (Escherichia coli; isolate TZAN-541 (VIM), read-out: Imipenem MIC): 4 µg/mL | MIC (Providencia stuartii; isolate ALX- 21 (VIM, VEB), read-out: Imipenem MIC): 8 µg/mL | MIC (Providencia stuartii; isolate ALX-27 (VIM), read-out: Imipenem MIC): 16 µg/mL | MIC (Providencia stuartii; isolate ESDY-4559 (VIM), read-out: Imipenem MIC): 4 µg/mL | MIC (Providencia stuartii; isolate ESDY-4563 (VIM, VEB), read-out: Imipenem MIC): 4 µg/mL | MIC (Klebsiella pneumoniae; Table 5, Kpn ESDY 5742 (IMP-1), read-out: Imipenem MIC): 8 µg/mL | MIC (Klebsiella pneumoniae; Table 5, Kpn LA 26 (NDM-1), read-out: Imipenem MIC): 16 µg/mL | MIC (Klebsiella pneumoniae; Table 5, Kpn LA 34 (VIM-1 CMY), read-out: Imipenem MIC): 16 µg/mL | MIC (Klebsiella pneumoniae; Table 5, Kpn LA 82/16 (VIM-1), read-out: Imipenem MIC): 64 µg/mL | MIC (Klebsiella pneumoniae; Table 5, Kpn LA 109/16 (VIM-1), read-out: Imipenem MIC): 16 µg/mL | MIC (Klebsiella pneumoniae; Table 5, Kpn LA419/16 (NDM-1), read-out: Imipenem MIC): 8 µg/mL | MIC (Klebsiella pneumoniae; Table 5, Kpn LAR 37II/15 (NDM-1, VIM-1, CTXM), read-out: Imipenem MIC): 64 µg/mL | MIC (Klebsiella pneumoniae; isolate 6/100 (VIM), read-out: Imipenem MIC): 32 µg/mL | MIC (Klebsiella pneumoniae; isolate 2489 (NDM), read-out: Imipenem MIC): 32 µg/mL | MIC (Klebsiella pneumoniae; isolate 2685 (VIM, CMY, CTXM), read-out: Imipenem MIC): 32 µg/mL | MIC (Klebsiella pneumoniae; isolate ALX-47 (OXA-48,CTX-M), read-out: Imipenem MIC): 4 µg/mL | MIC (Klebsiella pneumoniae; isolate ESDY-1780 (VIM, KPC), read-out: Imipenem MIC): 16 µg/mL | MIC (Klebsiella pneumoniae; isolate ESDY-2681 (VIM-27), read-out: Imipenem MIC): 16 µg/mL | MIC (Klebsiella pneumoniae; isolate ESDY-5742 (IMP), read-out: Imipenem MIC): 8 µg/mL | MIC (Klebsiella pneumoniae; isolate EY-20S (CMY, SHV), read-out: Imipenem MIC): 2 µg/mL | MIC (Klebsiella pneumoniae; isolate IT-17829 (CTXM, SHV), read-out: Imipenem MIC): 1 µg/mL | MIC (Klebsiella pneumoniae; isolate L078/11 (KPC), read-out: Imipenem MIC): 32 µg/mL | MIC (Klebsiella pneumoniae; isolate LA-26 (NDM), read-out: Imipenem MIC): 16 µg/mL | MIC (Klebsiella pneumoniae; isolate LA-27 (NDM, CTXM), read-out: Imipenem MIC): 8 µg/mL | MIC (Klebsiella pneumoniae; isolate LA-28 (NDM, CTXM), read-out: Imipenem MIC): 8 µg/mL | MIC (Klebsiella pneumoniae; isolate LA-34 (VIM, CMY), first entry of Table 3, read-out: Imipenem MIC): 32 µg/mL | MIC (Klebsiella pneumoniae; isolate LA-34 (VIM, CMY), second entry of Table 3, read-out: Imipenem MIC): 32 µg/mL | MIC (Klebsiella pneumoniae; isolate LA-38 (NDM), read-out: Imipenem MIC): 8 µg/mL | MIC (Klebsiella pneumoniae; isolate LA-82/16 (VIM, SHV), read-out: Imipenem MIC): 8 µg/mL | MIC (Klebsiella pneumoniae; isolate LA-109/16 (VIM, CTXM), read-out: Imipenem MIC): 16 µg/mL | MIC (Klebsiella pneumoniae; isolate LA-419/16 (NDM,CTXM), read-out: Imipenem MIC): 4 µg/mL | MIC (Klebsiella pneumoniae; isolate LA-470/17 (NDM), read-out: Imipenem MIC): 8 µg/mL | MIC (Klebsiella pneumoniae; isolate LAR-26I/15 (NDM, VIM, CTXM), read-out: Imipenem MIC): 16 µg/mL | MIC (Klebsiella pneumoniae; isolate LAR-37II/15 (NDM, VIM, CTXM), read-out: Imipenem MIC): 64 µg/mL | MIC (Klebsiella pneumoniae; isolate LAR-38I/15 (VIM, NDM, CTXM), read-out: Imipenem MIC): 4 µg/mL | MIC (Klebsiella pneumoniae; isolate LAR-40II/15 (KPC), read-out: Imipenem MIC): 16 µg/mL | MIC (Klebsiella pneumoniae; isolate LAR-2873 (VIM-12), read-out: Imipenem MIC): 4 µg/mL | MIC (Klebsiella pneumoniae; isolate LAR-7547 (NDM, VIM, CTXM), read-out: Imipenem MIC): 64 µg/mL | MIC (Klebsiella pneumoniae; isolate SEC-2 (VIM), read-out: Imipenem MIC): 32 µg/mL | MIC (Klebsiella pneumoniae; isolate SEC-4 (VIM), read-out: Imipenem MIC): 64 µg/mL | MIC (Klebsiella pneumoniae; isolate TZAN-59 (β-lactamase: None), read-out: Imipenem MIC): 1 µg/mL | MIC (Klebsiella pneumoniae; isolate UoA 12/227 (VIM), read-out: Imipenem MIC): 8 µg/mL | MIC (Klebsiella pneumoniae; isolate UoA 1995 (VIM), read-out: Imipenem MIC): 8 µg/mL
SMILES: C[C@@H](O)[C@H]1C(=O)N2C(C(=O)O)=C(SCCN=CN)C[C@H]12 [Imipenem, reference compound]

Imipenem + α-IDACYD MIC (Klebsiella pneumoniae; Kpn ESDY 5742 (IMP-1)): <0.25 µg/mL | Meropenem + α-IDACYD MIC (Klebsiella pneumoniae; Kpn ESDY 5742 (IMP-1)): <0.25 µg/mL | Imipenem + α-IDACYD MIC (Klebsiella pneumoniae; Kpn LA 34 (VIM-1 CMY)): <0.5 µg/mL | Meropenem + α-IDACYD MIC (Klebsiella pneumoniae; Kpn LA 34 (VIM-1 CMY)): <0.5 µg/mL | Imipenem + α-IDACYD MIC (Klebsiella pneumoniae; Kpn LA 82/16 (VIM-1)): <0.25 µg/mL | Meropenem + α-IDACYD MIC (Klebsiella pneumoniae; Kpn LA 82/16 (VIM-1)): <0.25 µg/mL | Imipenem + α-IDACYD MIC (Klebsiella pneumoniae; Kpn LA 109/16 (VIM-1)): <0.25 µg/mL | Meropenem + α-IDACYD MIC (Klebsiella pneumoniae; Kpn LA 109/16 (VIM-1)): <0.25 µg/mL | Imipenem + α-IDACYD MIC (Klebsiella pneumoniae; Kpn LA419/16 (NDM-1)): <0.25 µg/mL | Meropenem + α-IDACYD MIC (Klebsiella pneumoniae; Kpn LA419/16 (NDM-1)): <0.25 µg/mL
SMILES: CO[C@@H]1[C@@H](OC)[C@H]2O[C@H]3[C@H](OC)[C@@H](OC)[C@@H](O[C@H]4[C@H](OC)[C@@H](OC)[C@@H](O[C@H]5[C@H](OC)[C@@H](OC)[C@@H](O[C@H]6[C@H](OC)[C@@H](OC)[C@@H](O[C@H]7[C@H](OC)[C@@H](OC)[C@@H](O[C@@H]1[C@@H](CN(CC(=O)O)CC(=O)O)O2)O[C@@H]7CN(CC(=O)O)CC(=O)O)O[C@@H]6CN(CC(=O)O)CC(=O)O)O[C@@H]5CN(CC(=O)O)CC(=O)O)O[C@@H]4CN(CC(=O)O)CC(=O)O)O[C@@H]3CN(CC(=O)O)CC(=O)O [α-IDACYD]

Source: EP3714904B1, “IMINODIACETIC ACID SUBSTITUTED CYCLODEXTRINS AS POTENTIATORS OF BETA-LACTAM ANTIBIOTICS” (NATIONAL CENTER FOR SCIENTIFIC RESEARCH "DEMOKRITOS" (NCSRD), priority 2019, dated 2020)
